Reference: patent US20050228180A1, “Alpha, omega-dicarboximide derivatives as useful uro-selective a1a adrenoceptor blockers” (priority 2002, published 2005)
Counter-ions that a name gives are not always drawn.

Assays:
[1] = target: T1, α1A adrenoceptor (prostate) (Rattus norvegicus, UniProt P43140); assay: In vitro functional assay, isolated prostate, phenylepinephrine contraction; assay type: cell-based
T1 construct: from tissue; host or cells: isolated prostate tissue
T1 sequence (P43140 1-466): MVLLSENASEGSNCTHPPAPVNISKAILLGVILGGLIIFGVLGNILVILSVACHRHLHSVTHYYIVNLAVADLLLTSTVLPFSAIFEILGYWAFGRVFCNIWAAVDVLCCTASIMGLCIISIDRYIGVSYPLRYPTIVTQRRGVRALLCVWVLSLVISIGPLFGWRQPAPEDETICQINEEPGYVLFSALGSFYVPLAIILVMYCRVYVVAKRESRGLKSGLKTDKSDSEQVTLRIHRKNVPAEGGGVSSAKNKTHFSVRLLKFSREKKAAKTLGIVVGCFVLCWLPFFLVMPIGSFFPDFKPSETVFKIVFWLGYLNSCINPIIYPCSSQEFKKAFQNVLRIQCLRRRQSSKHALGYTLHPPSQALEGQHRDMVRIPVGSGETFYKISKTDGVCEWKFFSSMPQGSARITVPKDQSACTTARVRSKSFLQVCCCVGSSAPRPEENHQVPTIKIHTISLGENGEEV
Summary of the method: (§1)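 Rat aorta, spleen and prostate strips from urethane-anaesthetised male Wistar rats in Krebs-Henseleit at 37 °C (95% O2/5% CO2), 2 g or 1 g resting tension, 2 h equilibration. Norepinephrine (aorta) or phenylephrine (spleen, prostate) contraction curves run without and with compound at […]; antagonist affinity given as pKB.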

[2] = target: T2, α1B adrenoceptor (spleen) (Rattus norvegicus, UniProt P15823); assay: In vitro functional assay, isolated spleen, phenylepinephrine contraction; assay type: cell-based; details: read-out: α Adrenoceptor Subtype (pKB) α1B (converted)
T2 construct: Isolated tissues were mounted in organ bath containing Krebs Henseleit buffer; from tissue; host or cells: isolated rat spleen
T2 sequence (P15823 1-515): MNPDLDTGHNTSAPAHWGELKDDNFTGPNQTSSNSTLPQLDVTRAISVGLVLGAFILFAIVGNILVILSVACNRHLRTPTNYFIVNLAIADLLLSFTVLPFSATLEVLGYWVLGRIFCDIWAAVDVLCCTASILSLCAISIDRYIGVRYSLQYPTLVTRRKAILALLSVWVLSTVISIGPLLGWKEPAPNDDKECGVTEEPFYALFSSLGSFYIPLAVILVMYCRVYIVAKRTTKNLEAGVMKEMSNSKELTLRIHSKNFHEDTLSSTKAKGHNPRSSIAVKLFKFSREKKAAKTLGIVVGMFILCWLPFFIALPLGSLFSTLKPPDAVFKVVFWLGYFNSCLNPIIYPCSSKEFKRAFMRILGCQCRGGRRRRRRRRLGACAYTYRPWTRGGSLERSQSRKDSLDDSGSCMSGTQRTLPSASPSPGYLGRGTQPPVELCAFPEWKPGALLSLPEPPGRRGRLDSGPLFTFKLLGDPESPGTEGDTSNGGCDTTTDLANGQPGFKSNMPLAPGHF
Summary of the method: as §1

conscious beagle dogs = assay: In vivo uroselectivity study: phenylephrine response on MAP and IUP; parameters: species or system dog; details: 30 μg/kg p.o.
Text: In order to assess the uroselectivity in vivo, the effects of these compounds were studied on mean arterial pressure (MAP) and intraurethral pressure (UP) in conscious beagle dogs as per the method of Brune et al. (Pharmacol., 1996, 53:356). Briefly, male dogs were instrumented for chronic continuous measurement of arterial blood pressure by implanting a telemetry transmitter (TL11M2-D70-PCT, Data Sci. International, St. Paul, Minn. USA) into the femoral artery, two weeks prior to the study. During the recovery period, the animal was acclimatized to stay in the sling restraint. On the day of testing, overnight fasted animal was placed in the sling restraint. A Swan-Ganz. Balloon tipped catheter was introduced into the urethra at the level of prostate and the balloon was inflated (Brune. et. al. 1996). After recording the base line readings, effect of 16 μg/kg, phenylephrine (i.v.) on MAP and IUP was recorded. The response of phenylephrine to MAP and […] were recorded at 0.5, 1, 2, 3, 4, 6, 9 and 24 hours after the oral administration of vehicle or the test drug. The changes in MAP were recorded on line using Dataquest Software (Data Sci. International, St. Paul, Minn. USA). The change in phenylephrine response on […] administration after the test drug administration was calculated as percent change of that of control values. Area under curve was calculated, and the ratio of the values for MAP and IUP was used for calculating the uroselectivity (Table III).

[3] = percent change of phenylephrine response over 24 hours

SMILES: CC(C)Oc1ccccc1N1CCN(CCCN2C(=O)C3CC(O)C(O)CC3C2=O)CC1 (stereo not shown) [Compound No. 23, 2-[3-{4-(2-Isopropoxyphenyl)piperazin-1-yl}propyl]-5,6-dihydroxy-3a,4,5,6,7,7a, hexahydro-1H-isoindole-1,3(2H)-dione-hydrochloride]
- Selectivity α1B/α1A ([1]; functional, from pKB): 5
- Selectivity α1D/α1A ([1]; functional, from pKB): 5.6
- Kb ([1]; rat prostate, phenylepinephrine, read-out: α Adrenoceptor Subtype (pKB) α1A (converted)): 1.48 nM
- Kb [2]: 7.41 nM
- Uroselectivity Ratio IUP/MAP (conscious beagle dogs): 5.5
- Area Under Curve IUP (conscious beagle dogs; [3]): 524
- Area Under Curve MAP (conscious beagle dogs; [3]): 95
